# Biological target: T1, RORγt (Homo sapiens, UniProt P51449)
# T1 construct: purchased reporter-cell kit
# T1 sequence (P51449 269-508 limits assumed): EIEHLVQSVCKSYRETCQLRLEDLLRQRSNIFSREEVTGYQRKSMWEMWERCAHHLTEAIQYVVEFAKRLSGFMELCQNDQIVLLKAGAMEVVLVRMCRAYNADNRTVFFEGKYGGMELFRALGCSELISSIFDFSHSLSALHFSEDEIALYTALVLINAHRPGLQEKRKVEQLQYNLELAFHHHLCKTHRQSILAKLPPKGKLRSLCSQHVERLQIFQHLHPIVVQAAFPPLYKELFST
# Assay: Gal4 ligand binding assay (RORγt Gal fusion reporter assay)
# Format: cell-based
# Conditions: inverse agonists, luciferase reporter, 24h
# Procedure: Compounds of the present invention were tested in a human RORγ ligand binding assay using a commercially available cell based ligand binding reporter assay in 96-well format (Cat #IB04001, INDIGO Biosciences, State College, Pa.). The N-terminal DNA binding domains (DBD) of the native RORγ and RORγt receptors have been substituted with that of the yeast GAL4-DBD and stably transfected in […] cells that also stably express luciferase under the regulation by upstream activation sequence of yeast Gal4. These cells constitutively express high level RORγ activity due to binding of endogenous co-factors. Both agonist and inverse agonist activity can be detected. The assay was performed according to kit manufacturer's instructions as follows. 10 mM compound stocks were diluted serially 1:3 with DMSO and further diluted with provided media to generate 10 titration points from 60 μM to 3 nM. These treatment conditions were added to the plates as 2× media in 100 μL volume. Each plate includes a positive control with 10 titration points as well as 6negative control wells with vehicle only, with final DMSO concentration of 0.2%. RORγ reporter cells were rapidly thawed and added to the plates in 100 μL volume. The plates were incubated for 24h in a 37° C. humidified 5% CO2incubator. Media was removed before the addition of room temperature luciferous detection substrate. After 5 minute incubation, relative light units (RLUs) were quantified using a plate reading luminometer. Data was normalized to positive control wells with only […]. Before establishing internal controls, ursolic acid was used as control.
row,SMILES,IC50 [nM]
1,"CS(=O)(=O)N1C2CCC1CN(c1cccc(-c3ccc(C(O)(C(F)(F)F)C(F)(F)F)cc3)c1)C2 [Example 9, 1,1,1,3,3,3-hexafluoro-2-(3′-(8-(methylsulfonyl)-3,8-diazabicyclo[3.2.1]octan-3-yl)-[1,1′-biphenyl]-4-yl)propan-2-ol]",> 250
2,"Cc1cc(CN2C3CCC2CN(Cc2ccc(-c4ccc(C(O)(C(F)(F)F)C(F)(F)F)cc4)c(C)c2)C3)ccn1 [Example 66, 1,1,1,3,3,3-hexafluoro-2-(2′-methyl-4′-((8-((2-methylpyridin-4-yl)methyl)-3,8-diazabicyclo[3.2.1]octan-3-yl)methyl)-[1,1′-biphenyl]-4-yl)propan-2-ol]",> 250
3,"CC(C)c1cc(CN2CC3CCC(C2)N3S(C)(=O)=O)ccc1-c1ccc(C(O)(C(F)(F)F)C(F)(F)F)cc1Cl [Example 22, 2-(2-chloro-2′-isopropyl-4′-((8-(methylsulfonyl)-3,8-diazabicyclo[3.2.1]octan-3-yl)methyl)-[1,1′-biphenyl]-4-yl)-1,1,1,3,3,3-hexafluoropropan-2-ol]",50 to 250
4,"OC(c1ccc(-c2ccc(CN3CC4CCC(C3)N4Cc3ccncc3)cc2Cl)cc1)(C(F)(F)F)C(F)(F)F [Example 56, 2-(2′-chloro-4′-((8-(pyridin-4-ylmethyl)-3,8-diazabicyclo[3.2.1]octan-3-yl)methyl)-[1,1′-biphenyl]-4-yl)-1,1,1,3,3,3-hexafluoropropan-2-ol]",< 50
5,"CCc1cc(CN2CC3CCC(C2)N3S(C)(=O)=O)c(F)c(F)c1-c1ccc(C(O)(C(F)(F)F)C(F)(F)F)cc1C [Example 29, 2-(6′-ethyl-2′,3′-difluoro-2-methyl-4′-((8-(methylsulfonyl)-3,8-diazabicyclo[3.2.1]octan-3-yl)methyl)-[1,1′-biphenyl]-4-yl)-1,1,1,3,3,3-hexafluoropropan-2-ol]",< 50
6,"CCc1cc(CN2CC3CCC(C2)N3S(C)(=O)=O)cc(F)c1-c1ccc(C(O)(C(F)(F)F)C(F)(F)F)cc1 [Example 16, 2-(2′-ethyl-6′-fluoro-4′-((8-(methylsulfonyl)-3,8-diazabicyclo[3.2.1]octan-3-yl)methyl)-[1,1′-biphenyl]-4-yl)-1,1,1,3,3,3-hexafluoropropan-2-ol]",< 50
7,"CCc1cc(CN2CC3CCC(C2)N3S(C)(=O)=O)ccc1-c1ccc(C(O)(C(F)(F)F)C(F)(F)F)cc1 [Example 52, 2-(2′-ethyl-4′-((8-(methylsulfonyl)-3,8-diazabicyclo[3.2.1]octan-3-yl)methyl)-[1,1′-biphenyl]-4-yl)-1,1,1,3,3,3-hexafluoropropan-2-ol]",< 50
8,"OC(c1ccc(-c2ccc(CN3CC4CCC(C3)N4Cc3ccncc3)cc2)cc1)(C(F)(F)F)C(F)(F)F [Example 1, 1,1,1,3,3,3-hexafluoro-2-(4′-((8-(pyridin-4-ylmethyl)-3,8-diazabicyclo[3.2.1]octan-3-yl)methyl)-[1,1′-biphenyl]-4-yl)propan-2-ol]",50 to 250
9,"Cc1cc(CN2C3CCC2CN(Cc2ccc(-c4ccc(C(O)(C(F)(F)F)C(F)(F)F)cc4)c(Cl)c2)C3)ccn1 [Example 48, 2-(2′-chloro-4′-((8-((2-methylpyridin-4-yl)methyl)-3,8-diazabicyclo[3.2.1]octan-3-yl)methyl)-[1,1′-biphenyl]-4-yl)-1,1,1,3,3,3-hexafluoropropan-2-ol]",50 to 250
10,"Cc1cc(CN2CC3CCC(C2)N3S(=O)(=O)c2ccc(F)cc2)ccc1-c1ccc(C(O)(C(F)(F)F)C(F)(F)F)cc1 [Example 62, 1,1,1,3,3,3-hexafluoro-2-(4′-((8-((4-fluorophenyl)sulfonyl)-3,8-diazabicyclo[3.2.1]octan-3-yl)methyl)-2′-methyl-[1,1′-biphenyl]-4-yl)propan-2-ol]",> 250
11,"CCc1cc(CN2CC3CCC(C2)N3Cc2ccncc2)ccc1-c1ccc(C(O)(C(F)(F)F)C(F)(F)F)cc1 [Example 53, 2-(2′-ethyl-4′-((8-(pyridin-4-ylmethyl)-3,8-diazabicyclo[3.2.1]octan-3-yl)methyl)-[1,1′-biphenyl]-4-yl)-1,1,1,3,3,3-hexafluoropropan-2-ol]",< 50
12,"Cc1cc(CN2CC3CCC(C2)N3Cc2ccncn2)ccc1-c1ccc(C(O)(C(F)(F)F)C(F)(F)F)cc1 [Example 47, 1,1,1,3,3,3-hexafluoro-2-(2′-methyl-4′-((8-(pyrimidin-4-ylmethyl)-3,8-diazabicyclo[3.2.1]octan-3-yl)methyl)-[1,1′-biphenyl]-4-yl)propan-2-ol]",< 50
13,"Cc1cc(CN2CC3CCC(C2)N3c2noc(C(C)(C)C)n2)ccc1-c1ccc(C(O)(C(F)(F)F)C(F)(F)F)cc1 [Example 36, 2-(4′-((8-(5-(tert-butyl)-1,2,4-oxadiazol-3-yl)-3,8-diazabicyclo[3.2.1]octan-3-yl)methyl)-2′-methyl-[1,1′-biphenyl]-4-yl)-1,1,1,3,3,3-hexafluoropropan-2-ol]",> 250
14,"Cc1cc(CN2CC3CC2CN3Cc2ccncc2)ccc1-c1ccc(C(O)(C(F)(F)F)C(F)(F)F)cc1 (centres unmarked) [Example 72, 1,1,1,3,3,3-hexafluoro-2-(2′-methyl-4′-((5-(pyridin-4-ylmethyl)-2,5-diazabicyclo[2.2.1]heptan-2-yl)methyl)-[1,1′-biphenyl]-4-yl)propan-2-ol]",> 250
15,"OC(c1ccc(-c2ccc(CN3C4CCC3CN(Cc3ccncc3)C4)cc2)cc1)(C(F)(F)F)C(F)(F)F [Example 2, 1,1,1,3,3,3-hexafluoro-2-(4′-((3-(pyridin-4-ylmethyl)-3,8-diazabicyclo[3.2.1]octan-8-yl)methyl)-[1,1′-biphenyl]-4-yl)propan-2-ol]",> 250
16,"CC(=O)N1C2CCC1CN(Cc1ccc(-c3ccc(C(O)(C(F)(F)F)C(F)(F)F)cc3)c(C)c1)C2 [Example 71, 1-(3-((4′-(1,1,1,3,3,3-hexafluoro-2-hydroxypropan-2-yl)-2-methyl-[1,1′-biphenyl]-4-yl)methyl)-3,8-diazabicyclo[3.2.1]octan-8-yl)ethan-1-one]",50 to 250
17,"Cc1cc(CN2CC3CCC(C2)N3S(C)(=O)=O)ccc1-c1ccc(C(O)(C(F)(F)F)C(F)(F)F)cc1 [Example 73, 1,1,1,3,3,3-hexafluoro-2-(2′-methyl-4′-((8-(methylsulfonyl)-3,8-diazabicyclo[3.2.1]octan-3-yl)methyl)-[1,1′-biphenyl]-4-yl)propan-2-ol]",50 to 250
18,"CCc1cc(CN2CC3CCC(C2)N3S(C)(=O)=O)cc(F)c1-c1ccc(C(O)(C(F)(F)F)C(F)(F)F)cc1Cl [Example 18, 2-(2-chloro-2′-ethyl-6′-fluoro-4′-((8-(methylsulfonyl)-3,8-diazabicyclo[3.2.1]octan-3-yl)methyl)-[1,1′-biphenyl]-4-yl)-1,1,1,3,3,3-hexafluoropropan-2-ol]",< 50
19,"CCc1cc(CN2CC3CCC(C2)N3S(C)(=O)=O)ccc1-c1ccc(C(O)(C(F)(F)F)C(F)(F)F)cc1Cl [Example 27, 2-(2-chloro-2′-ethyl-4′-((8-(methylsulfonyl)-3,8-diazabicyclo[3.2.1]octan-3-yl)methyl)-[1,1′-biphenyl]-4-yl)-1,1,1,3,3,3-hexafluoropropan-2-ol]",< 50
20,"OC(c1ccc(-c2ccc(CN3CC4CCC(C3)N4Cc3ccncc3)cc2F)cc1)(C(F)(F)F)C(F)(F)F [Example 59, 1,1,1,3,3,3-hexafluoro-2-(2′-fluoro-4′-((8-(pyridin-4-ylmethyl)-3,8-diazabicyclo[3.2.1]octan-3-yl)methyl)-[1,1′-biphenyl]-4-yl)propan-2-ol]",> 250

# — US11230555B2, “Bicyclic RORγ modulators” (Escalier Biosciences B.V., priority 2018, dated 2022)
